Measurements as given in ChEMBL document CHEMBL2440103, “Synthesis, docking, and biological studies of phenanthrene β-diketo acids as novel HIV-1 integrase inhibitors” (Bioorg Med Chem Lett, 2013).

Assays:
[1] = biological target: T1, Human immunodeficiency virus type 1 integrase (Human immunodeficiency virus 1, UniProt Q7ZJM1); experiment: Inhibition of Human immunodeficiency virus 1 integrase-mediated 3'-processing after 30 mins by polyacrylamide gel electrophoresis
[2] = biological target: T1, Human immunodeficiency virus type 1 integrase; experiment: Inhibition of Human immunodeficiency virus 1 integrase strand transfer activity after 30 mins by polyacrylamide gel electrophoresis
[3] = tested on: Human immunodeficiency virus 1; experiment: Antiviral activity against Human immunodeficiency virus 1 infected in human PBMC assessed as inhibition of viral replication after 5 days by RT-PCR method; type: functional, organism-based; conditions: Human immunodeficiency virus 1, 120 h
PBMC = experiment: Cytotoxicity against human PBMC; type: cell-based
Vero = experiment: Cytotoxicity against african green monkey Vero cells; type: cell-based; conditions: Chlorocebus sabaeus
CCRF-CEM = experiment: Cytotoxicity against human CEM cells; type: cell-based
[4] = biological target: Human immunodeficiency virus type 1 integrase (Human immunodeficiency virus 1) (UniProt Q7ZJM1); experiment: Selectivity ratio of IC50 for Human immunodeficiency virus 1 integrase-mediated 3'-processing to IC50 for Human immunodeficiency virus 1 integrase strand transfer activity
Human immunodeficiency virus type 1 integrase (Human immunodeficiency virus 1), sequence (Q7ZJM1 as listed by the source): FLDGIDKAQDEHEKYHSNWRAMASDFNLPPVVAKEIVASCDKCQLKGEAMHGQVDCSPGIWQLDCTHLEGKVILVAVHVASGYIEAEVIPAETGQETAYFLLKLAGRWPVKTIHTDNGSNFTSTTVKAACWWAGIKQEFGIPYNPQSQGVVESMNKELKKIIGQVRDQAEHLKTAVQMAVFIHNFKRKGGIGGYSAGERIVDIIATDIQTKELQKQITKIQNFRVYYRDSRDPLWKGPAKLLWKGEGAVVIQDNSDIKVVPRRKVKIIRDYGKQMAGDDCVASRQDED

T1 sequence (Q7ZJM1 whole entry): as the sequence (Q7ZJM1 as listed by the source) above

SMILES	IC50 [1] [µM]	IC50 [2] [µM]	EC50 [3] [µM]	IC50 (PBMC) [µM]	IC50 (Vero) [µM]	IC50 (CCRF-CEM) [µM]	Ratio IC50 [4]
O=C(O)C(=O)CC(=O)c1ccc2c(ccc3c(Cl)cccc32)c1	19	4					
O=C(O)C(=O)CC(=O)c1ccc2ccc3ccccc3c2c1F	83	63					
O=C(O)C(=O)CC(=O)c1ccc2c(ccc3c(F)cccc32)c1	35	4					
O=C(O)C(=O)CC(=O)c1ccc2c(ccc3ccc(Cl)cc32)c1	5	1.3	27.5	4	4.5	13.1	
COc1ccc2c(c1)cc(C(=O)CC(=O)C(=O)O)c1ccccc12	32	3					
O=C(O)C(=O)CC(=O)c1ccc2ccc3c(F)cccc3c2c1	11	3					
Cc1cn([C@H]2C[C@H](N=[N+]=[N-])[C@@H](CO)O2)c(=O)[nH]c1=O [ZIDOVUDINE]				> 100			
O=C(O)C(=O)CC(=O)c1ccc2ccc3c(Cl)cccc3c2c1	11	1.2					
O=C(O)C(=O)CC(=O)c1ccc2c(ccc3cc(Cl)ccc32)c1	12	1.4	20.9	14.1	7.2	12.1	9
COc1ccc2c(c1)cc(C(=O)CC(=O)C(=O)O)c1c(F)cccc12	44	6					
O=C(O)C(=O)CC(=O)c1ccc2ccc3cc(F)ccc3c2c1F	63	8					
